# PMC8809056 (Science (New York, N.y.), 2021)
# How the values were obtained:
# OC43 = OC43 infection of A549 cells, viral nucleoprotein staining; type: cell-based, human beta coronavirus OC43; conditions: for Inhibition of OC43 infection, dose-response validation (in words): A549 cells; for EC50: Betacoronavirus 1, OC43, A549, 96 h, read-out: EC50 against OC43 infection
# 3CL = tested on: 3CL; design: method as in doi:10.1101/2020.08.29.272864; conditions: read-out: Previously reported IC50 in cells; cited from earlier work
# PLpro = target: T1, PLpro (Severe acute respiratory syndrome coronavirus 2, UniProt P0DTD1); assay: PLpro activity assay; type: biochemical, SARS-CoV-2; conditions: fig. S7
# T1 construct: the papain-like protease, PLpro, a domain within nsp3
# other RNA viruses = assay: Replication of other RNA viruses; type: cell-based
# 3C protease = 3C protease (Coxsackievirus B3, UniProt P03313); type: cell-based, picornaviruses
# [1] = tested on: SARS-CoV-2 (nCoV/Washington/1/2020); type: in vivo, mice
# [2] = mouse, in vivo
# multiple picornaviruses = assay: Replication of picornaviruses; type: cell-based; conditions: fig. S8B
# SARS-CoV-2 3CL = target: T2, SARS-CoV-2 3CL (Severe acute respiratory syndrome coronavirus 2, UniProt P0DTD1); assay: Fluorescence-based 3CL enzyme activity assay in vitro (enzyme kinetics, Dixon plot); type: biochemical; conditions: range of substrate and inhibitor concentrations, SigmaPlot fit
# T2 construct: the main viral protease, known as Mpro, 3CLpro, or nonstructural protein 5 (nsp5); made in house
# Text: Individual measurements are shown as semitransparent gray circles. Error bars depict means ± SEM. […] Individual measurements are shown as circles. […] RFU, relative fluorescence units.
# To test this, we measured the rate of the 3CL enzymatic reaction in vitro using a fluorescence-based enzyme activity assay ([29]). We measured the rate of 3CL activity in a range of substrate and inhibitor concentrations and fitted the data to equations describing different modes of inhibition using SigmaPlot Enzyme Kinetics Module 1.3 (see methods).
# [3] = feline model of asthma; cited from earlier work
# [4] = 25 mg kg−1 twice a day, day six
# Sequence of 3C protease (P03313 1541-1723 limits assumed): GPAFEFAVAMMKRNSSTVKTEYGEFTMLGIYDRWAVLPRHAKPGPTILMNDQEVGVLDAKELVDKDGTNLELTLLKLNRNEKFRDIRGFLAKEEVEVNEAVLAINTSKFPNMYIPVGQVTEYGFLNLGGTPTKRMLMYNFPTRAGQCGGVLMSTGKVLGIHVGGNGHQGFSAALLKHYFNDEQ
smiles,measurement,setting,value
CC[C@H]1OC(=O)[C@H](C)[C@@H](O[C@H]2C[C@@](C)(OC)[C@@H](O)[C@H](C)O2)[C@H](C)[C@@H](O[C@@H]2O[C@H](C)C[C@H](N(C)C)[C@H]2O)[C@](C)(O)C[C@@H](C)C(=O)[C@H](C)[C@@H](O)[C@]1(C)O [erythromycin],"Inhibition of OC43 infection, dose-response validation (in words)",OC43,failed validation
Cc1ccc(NC(=O)c2ccc(CN3CCNCC3)cc2)cc1Nc1nc(-c2cccnc2)cs1 [AB3280],"Inhibition of OC43 infection, dose-response validation (in words)",OC43,maintains its antiviral activity
CCC(CC)COC(=O)[C@H](C)N[P@](=O)(OC[C@H]1O[C@@](C#N)(c2ccc3c(N)ncnn23)[C@H](O)[C@@H]1O)Oc1ccccc1 [Remdesivir],EC50,OC43,0.96 µM
Cc1ccc(O)c([C@H](CCN(C(C)C)C(C)C)c2ccccc2)c1 [tolertodine],"Inhibition of OC43 infection, dose-response validation (in words)",OC43,weak inhibitors of OC43 infection
Cc1ccc(NC(=O)c2ccc(CN3CC[C@H](N(C)C)C3)c(C(F)(F)F)c2)cc1Nc1nccc(-c2cncnc2)n1 [Bafetinib],EC50,OC43,2.1 µM
OCCN1CCN(CCC=C2c3ccccc3Sc3ccc(C(F)(F)F)cc32)CC1 [Flupenthixol],EC50,OC43,1.8 µM
O=C(Oc1cncc(Cl)c1)c1cccc2[nH]ccc12 [GRL-0496],IC50,3CL,5 µM
COC[C@H]1C[C@@H](c2nc(-c3ccc4c(c3)COc3cc5c(ccc6nc([C@@H]7CC[C@H](C)N7C(=O)[C@@H](NC(=O)OC)C(C)C)[nH]c65)cc3-4)c[nH]2)N(C(=O)[C@H](NC(=O)OC)c2ccccc2)C1 [Velpatasvir],EC50,OC43,2 µM
COc1ccc2cc1Oc1ccc(cc1)C[C@H]1c3c(cc4c(c3Oc3cc5c(cc3OC)CCN(C)[C@@H]5C2)OCO4)CCN1C [Cepharanthine],EC50,OC43,0.77 µM
COC(=O)N[C@H](C(=O)N1CCC[C@H]1c1nc(-c2ccc3c(c2)O[C@@H](c2ccccc2)n2c-3cc3cc(-c4c[nH]c([C@@H]5CCCN5C(=O)[C@@H](NC(=O)OC)C(C)C)n4)ccc32)c[nH]1)C(C)C [Elbasvir],EC50,OC43,0.17 µM
CCCCOC(=O)c1ccc(O)cc1 [Butylparaben],EC50,OC43,1.7 µM
O=C(c1ccc(OCCN2CCCCC2)cc1)c1c(-c2ccc(O)cc2)sc2cc(O)ccc12 [Raloxifene],EC50,OC43,2.7 µM
CCCCOC(=O)c1ccc(N)cc1 [Butamben],EC50,OC43,3.1 µM
CN(C)CCCN1c2ccccc2CCc2ccc(Cl)cc21 [Clomipramine],OC43 infection in drug-repurposing screen,"OC43; 10 μM, 4 days",top hits
Cc1ccc(NC(=O)c2ccc(CN3CCN(C)CC3)cc2)cc1Nc1nc(-c2cccnc2)cs1 [Masitinib],Effect on PLpro activity,PLpro,no effect
same,Effect on replication of other RNA viruses,other RNA viruses,not the replication of other RNA viruses
same,Effect on 3C protease activity,3C protease,significantly inhibited the activity of the 3C protease
same,Reduction in viral titers in the lungs and nose (log),[1]; [4],greater than two-log reduction
same,Reduction of the viral load,[1]; [4],> 99%
same,"Concentrations of proinflammatory cytokines (such as IL-1β, IFN-γ) in the lungs",[1]; day six,significantly reduced
same,Overall lung pathology,"[1]; day six, blindly scored 0 to 4",improved overall lung pathology
same,Reduction in viral titers in the lungs,"[1]; mouse, in vivo",> 200 fold
same,Reduction in viral titers in the nose,"[1]; mouse, in vivo",> 200 fold
same,"Survival, weight loss and clinical scores",[1]; up to 10 days,improvements in survival
same,Tolerability of dose,[2],"well tolerated, with minimal weight loss"
same,Effect on replication of picornaviruses,multiple picornaviruses,effective in blocking the replication of multiple picornaviruses
same,Mode of 3CL inhibition,SARS-CoV-2 3CL,competitive inhibition gave the best fit
same,Airway inflammation and lung functions,[3],decrease airway inflammation and improve lung functions
same,EC50,OC43,2.1 µM
CS(=O)(=O)CCNCc1ccc(-c2ccc3ncnc(Nc4ccc(OCc5cccc(F)c5)c(Cl)c4)c3c2)o1 [Lapatinib],EC50,OC43,3.1 µM
COc1cc2c(Oc3ccc4[nH]c(C)cc4c3F)ncnc2cc1OCCCN1CCCC1 [Cediranib],EC50,OC43,0.52 µM
C[C@@H]1[C@H](O)[C@@H](C)/C=C/C=C/C=C/C=C/C=C/C=C/C=C/[C@H](O[C@@H]2O[C@H](C)[C@@H](O)[C@H](N)[C@@H]2O)C[C@@H]2O[C@](O)(C[C@@H](O)C[C@@H](O)[C@H](O)CC[C@@H](O)C[C@@H](O)CC(=O)O[C@H]1C)C[C@H](O)[C@H]2C(=O)O [Amphotericin B],EC50,OC43,0.19 µM
